# From patent publication US11185520B2, “Composition comprising at least one water-soluble pharmaceutically acceptable salt of elafibranor having improved intestinal absorption” (NASHPHARM, priority 2016, dated 2021)
# “And” between values parts separate entries of the source, which are not always exact repeats. Equal values may be shown once.
# Columns and labels:
# [1] = system: non-alcoholic steatohepatitis NASH; settings: cited from earlier work
# [2] = Thermodynamic solubility of elafibranor in aqueous medium; format: physicochemical
# Description: The thermodynamic solubility of the basic elafibranor is studied over a period of 24 hours and 72 hours in various aqueous buffers in the presence or not of surfactants. Batch number EM0274L2 is used for this work. After 24 hours and 72 hours of incubation at ambient temperature (22°−24° C.), the solutions are sampled and then filtered over 0.2 μm polycarbonate filters in flasks for LCMS analyses, and diluting once in DMSO before stirring for 2 minutes (vortex or sonification).
# [3] = Solubility test on various elafibranor salts; format: physicochemical; settings: for Solubility in aqueous medium / Solubility: listed as Elafibranor (GFT505) Amorphous free basic
# [4] = all clinical trials; cited from earlier work
# [5] = Buffer pH 4.6, ambient temperature (22-24° C.)
# [6] = Buffer pH 7.4, ambient temperature (22-24° C.)
# [7] = Buffer pH 8.5, ambient temperature (22-24° C.)
# [8] = Polyethylene glycol 400, ambient temperature (22-24° C.)
# [9] = Propylene glycol, ambient temperature (22-24° C.)
smiles,measurement,setting,value
"CSc1ccc(C(=O)/C=C/c2cc(C)c(OC(C)(C)C(=O)O)c(C)c2)cc1 [elafibranor, 2-[2,6 dimethyl-4-[3-[4-(methylthio)phenyl]-3-oxo-1(E)-propenyl]phenoxyl]-2-methylpropanoic acid]","Biochemical markers of hepatic malfunctioning (ALAT, ASAT, γGT, ALP)",[1],improvement
same,Solubility after 24 hours,[2]; [5],44 µg/mL
same,Solubility after 72 hours,[2]; [5],110 μM and 0.042 mg/ml
same,Solubility after 24 hours,[2]; [6],194 µg/mL
same,Solubility after 72 hours,[2]; [6],0.234 mg/mL
same,Solubility after 24 hours,[2]; [7],1701 µg/mL
same,Solubility after 72 hours,[2]; [7],1.644 mg/mL
same,Solubility after 24 hours,[2]; [8],15023 µg/mL
same,Solubility after 72 hours,[2]; [8],15.774 mg/mL
same,Solubility after 24 hours,[2]; [9],12905 µg/mL
same,Solubility after 72 hours,[2]; [9],13.506 mg/mL
same,Solubility in an aqueous medium,[2]; in words,low
same,Effect of addition of cosolvent on solubility,[2]; propylene glycol or PEG 400,significantly improves the solubility
same,Solubility in aqueous medium,"[3]; Buffer pH 4.6, ambient temperature",44 µg/mL
same,Solubility in aqueous medium,"[3]; Buffer pH 7.4, ambient temperature",194 µg/mL
same,Solubility in aqueous medium,"[3]; Buffer pH 8.5, ambient temperature",1701 µg/mL
same,Solubility,"[3]; Polyethylene glycol 400, ambient temperature",15023 µg/mL
same,Solubility,"[3]; Propylene glycol, ambient temperature",12905 µg/mL
same,Solubility (according to Ph. Eur.),"[3]; aqueous medium, ambient temperature, descriptive term",Very low solubility
same,Tolerance profile,[4],very good tolerance profile
